# Experimental data: PubChem BioAssay (NCI)
#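 Five concentrations, 48 hours, 96-well plates. TGI: total growth inhibition.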
# Columns and labels:
# Experiment in all cases: NCI tumour cell line growth inhibition, 48 h
# CAKI-1 renal = tested on: CAKI-1 renal
# HCC-2998 colon = tested on: HCC-2998 colon
# HOP-62 NSCLC = tested on: HOP-62 NSCLC
# HOP-92 NSCLC = tested on: HOP-92 NSCLC
# LOX IMVI melanoma = tested on: LOX IMVI melanoma
# NCI-H23 lung = tested on: NCI-H23 lung
# SF-268 CNS = tested on: SF-268 CNS
# SF-295 CNS = tested on: SF-295 CNS
# SK-MEL-5 melanoma = tested on: SK-MEL-5 melanoma
# SW-620 colon = tested on: SW-620 colon
# UACC-257 melanoma = tested on: UACC-257 melanoma
# UO-31 renal = tested on: UO-31 renal
Compound,TGI (CAKI-1 renal) [µM],TGI (HCC-2998 colon) [µM],TGI (HOP-62 NSCLC) [µM],TGI (HOP-92 NSCLC) [µM],TGI (LOX IMVI melanoma) [µM],TGI (NCI-H23 lung) [µM],TGI (SF-268 CNS) [µM],TGI (SF-295 CNS) [µM],TGI (SK-MEL-5 melanoma) [µM],TGI (SW-620 colon) [µM],TGI (UACC-257 melanoma) [µM],TGI (UO-31 renal) [µM]
CC(C)(C)n1c(=O)n2n(c1=O)C1c3cccc4cccc(c34)C2C2c3cccc4cccc(c34)C1n1c(=O)n(C(C)(C)C)c(=O)n12,> 100,> 100,> 100,> 100,> 100,> 100,> 100,> 100,> 100,> 100,> 100,> 100
O=C(Nc1cccc(C(=O)NCCCO)c1)/C(=C/c1ccccc1)NC(=O)c1ccccc1,> 100,> 100,> 100,> 100,> 100,> 100,> 100,> 100,> 100,> 100,> 100,> 100
CCCC(=O)OC[n+]1ccc(-c2c(COC(=O)NC(C)C)c(COC(=O)NC(C)C)c3n2CCC3)cc1,> 100,> 100,> 100,> 100,> 100,> 100,> 100,> 100,> 100,> 100,> 100,> 100
COc1cc(CNc2cnc3ccc(N)cc3n2)cc(OC)c1OC,> 100,> 100,> 100,> 100,> 100,> 100,> 100,> 100,> 100,> 100,> 100,> 100
CC(C)Cn1cnc2c(Cl)nc3ccccc3c21,> 100,> 100,> 100,> 100,> 100,> 100,> 100,> 100,42.2,> 100,> 100,> 100
CN(C)C(=NC#N)N(Cc1ccccc1)Cc1ccccc1,> 100,> 100,> 100,> 100,> 100,> 100,> 100,> 100,> 100,33.7,> 100,> 100
Cc1ccc(C(=O)Oc2ccc(/C=C3\CCC/C(=C\c4ccc(OC(=O)c5ccc(C)cc5)cc4)C3=O)cc2)cc1,> 100,> 100,> 100,> 100,> 100,> 100,> 100,> 100,> 100,> 100,> 100,> 100
CCOC(=O)C1SC(=Nc2ccc(Cl)cc2Cl)N=C1C (stereo unspecified),> 100,> 100,> 100,62.3,> 100,> 100,> 100,> 100,> 100,> 100,> 100,> 100
O=[N+]([O-])/C(Cl)=C/C(=C1/Nc2ccccc2O1)[N+](=O)[O-],45.9,28,76.6,63.7,23.1,54.4,54.4,73.7,40.5,72.3,25.1,35.8
O=S(=O)(c1cc(Cl)ccc1Cl)N1CCN(c2cccc(Cl)c2)CC1,> 100,> 100,> 100,> 100,> 100,> 100,> 100,> 100,> 100,> 100,> 100,> 100
C/C=C\C(CC(=O)OC)CC(=O)N(CCC1CN(S(=O)(=O)C(F)(F)F)c2ccccc21)Cc1ccc(OC)cc1OC (stereo unspecified),> 100,> 100,> 100,> 100,> 100,> 100,> 100,> 100,> 100,> 100,> 100,> 100
CCOC(=O)c1sc2nc1CSc1sc(=S)sc1SCc1nc(sc1C(=O)OCC)-c1nc(c(C(=O)OCC)s1)CSc1sc(=S)sc1SCc1nc-2sc1C(=O)OCC,> 10,> 10,> 10,> 10,> 10,> 10,> 10,> 10,> 10,> 10,> 10,> 10
O=CN1CCC23CC(O)CCC2C1Cc1cc(Oc2nnnn2-c2ccccc2)cc(O)c13 (stereo unspecified),> 100,> 100,> 100,> 100,> 100,> 100,> 100,> 100,> 100,> 100,> 100,> 100
